Test results published in US7652029B2, “Therapeutic compound and treatments” (priority 2004, dated 2010).

Experiments:
Assay type in all cases: cell-based, human
HOP-92 = assay: NCI multiple cell line test (SRB); conditions: HOP-92 (Non-Small Cell Lung Cancer), 48 h
SK-MEL-5 = assay: NCI multiple cell line test (SRB); conditions: SK-MEL-5 (Melanoma), 48 h
OVCAR-3 = assay: NCI multiple cell line test (SRB); conditions: OVCAR-3 (Ovarian Cancer), 48 h
CAKI-1 = assay: NCI multiple cell line test (SRB); conditions: CAKI-1 (Renal Cancer), 48 h
H226 cells = assay: Growth response, MTT dye conversion assay
HT29 = assay: NCI multiple cell line test (SRB); conditions: HT29 (Colon Cancer), 48 h
UO-31 = assay: NCI multiple cell line test (SRB); conditions: UO-31 (Renal Cancer), 48 h
MDA-MB-231/ATCC = assay: NCI multiple cell line test (SRB); conditions: MDA-MB-231/ATCC (Breast Cancer), 48 h
COLO 205 = assay: NCI multiple cell line test (SRB); conditions: COLO 205 (Colon Cancer), 48 h
ACHN = assay: NCI multiple cell line test (SRB); conditions: ACHN (Renal Cancer), 48 h
SN12C = assay: NCI multiple cell line test (SRB); conditions: SN12C (Renal Cancer), 48 h
K-562 = assay: NCI multiple cell line test (SRB); conditions: K-562 (Leukemia), 48 h
ACHN cells = assay: Growth response, MTT dye conversion assay; conditions: low doses (FIG. 14 as printed)
IGROV1 = assay: NCI multiple cell line test (SRB); conditions: IGROV1 (Ovarian Cancer), 48 h
786-0 = assay: NCI multiple cell line test (SRB); conditions: 786-0 (Renal Cancer), 48 h
EKVX = assay: NCI multiple cell line test (SRB); conditions: EKVX (Non-Small Cell Lung Cancer), 48 h
HOP-92 cells = assay: Growth response, MTT dye conversion assay; conditions: low doses (FIG. 12 as printed)
SF-268 = assay: NCI multiple cell line test (SRB)
OVCAR-5 = assay: NCI multiple cell line test (SRB); conditions: OVCAR-5 (Ovarian Cancer), 48 h
UACC-62 = assay: NCI multiple cell line test (SRB); conditions: UACC-62 (Melanoma), 48 h
A549 cells = assay: Growth response, MTT dye conversion assay; conditions: low doses (FIG. 13 as printed)
SK-MEL-28 = assay: NCI multiple cell line test (SRB); conditions: SK-MEL-28 (Melanoma), 48 h
SF-295 = assay: NCI multiple cell line test (SRB); conditions: SF-295 (CNS Cancer), 48 h
OVCAR-8 = assay: NCI multiple cell line test (SRB); conditions: OVCAR-8 (Ovarian Cancer), 48 h
A549/ATCC = assay: NCI multiple cell line test (SRB); conditions: A549/ATCC (Non-Small Cell Lung Cancer), 48 h
U251 = assay: NCI multiple cell line test (SRB); conditions: U251 (CNS Cancer), 48 h
[1] = Homo sapiens, read-out: −log10GI50 (converted)

Question: Which results are given for `COC(=O)C1=C(C(=O)OC)SC2(S1)C(C(=O)OC)=C(C(=O)OC)SC1=C2c2cccc(OC)c2N(C(=O)CN2C(=O)CCC2=O)C1(C)C` [MT477]?
Answer: −log10LC50 (HOP-92): 4.6 molar; −log10TGI (HOP-92): 5.21 molar; IC50 (HOP-92; [1]): 1.66 µM; IC50 (SK-MEL-5; [1]): 6.17 µM; −log10LC50 (SK-MEL-5): * (effect not reached at maximum dose of 0.05 millimolar); −log10TGI (SK-MEL-5): 4.51 molar; IC50 (OVCAR-3; [1]): 0.813 µM; −log10LC50 (OVCAR-3): 5.39 molar; −log10TGI (OVCAR-3): 5.74 molar; −log10LC50 (CAKI-1): 4.48 molar; −log10TGI (CAKI-1): 4.83 molar; IC50 (CAKI-1; [1]): 6.61 µM; growth response (H226 cells; FIG. 5, 48 hours, compared with cisplatin): more effective than cisplatin; growth response at low concentrations (H226 cells; H226 cells, low doses (FIG. 11 as printed)): effective even at very low doses, including micromolar dosages; −log10LC50 (HT29): * (effect not reached at maximum dose of 0.05 millimolar); −log10TGI (HT29): 4.65 molar; IC50 (HT29; Homo sapiens, HT-29, read-out: −log10GI50 (converted)): 1.7 µM; IC50 (UO-31; [1]): 3.39 µM; −log10LC50 (UO-31): * (effect not reached at maximum dose of 0.05 millimolar); −log10TGI (UO-31): 4.81 molar; IC50 (MDA-MB-231/ATCC; [1]): 0.851 µM; −log10LC50 (MDA-MB-231/ATCC): 5.46 molar; −log10TGI (MDA-MB-231/ATCC): 5.76 molar; −log10LC50 (COLO 205): * (effect not reached at maximum dose of 0.05 millimolar); −log10TGI (COLO 205): 5.19 molar; IC50 (COLO 205; [1]): 1.66 µM; −log10LC50 (ACHN): 5.5 molar; −log10TGI (ACHN): 5.77 molar; IC50 (ACHN; [1]): 0.891 µM; IC50 (SN12C; [1]): 5.89 µM; −log10LC50 (SN12C): 4.6 molar; −log10TGI (SN12C): 4.91 molar; IC50 (K-562; Homo sapiens, K562, read-out: −log10GI50 (converted)): 1.62 µM; −log10LC50 (K-562): * (effect not reached at maximum dose of 0.05 millimolar); −log10TGI (K-562): 4.99 molar; growth response at low concentrations (ACHN cells): effective even at very low doses, including micromolar dosages; IC50 (IGROV1; Homo sapiens, IGROV-1, read-out: −log10GI50 (converted)): 17.8 µM; −log10LC50 (IGROV1): * (effect not reached at maximum dose of 0.05 millimolar); −log10TGI (IGROV1): 4.3 molar; −log10LC50 (786-0): 5.47 molar; −log10TGI (786-0): 5.76 molar; IC50 (786-0; [1]): 0.871 µM; −log10LC50 (EKVX): 4.34 molar; −log10TGI (EKVX): 4.7 molar; IC50 (EKVX; [1]): 8.51 µM; growth response at low concentrations (HOP-92 cells): effective even at very low doses, including micromolar dosages; GI50 (SF-268; Homo sapiens, SF-268, NCI-SF268, MT477 ACTUAL): 2.51 µM; IC50 (SF-268; Homo sapiens, SF-268 (CNS Cancer), 48 h, read-out: −log10GI50 (converted)): 2.14 µM; Activity against CNS cancer NCI-SF268 (SF-268; MT477 ACTUAL): Yes; −log10LC50 (SF-268; SF-268 (CNS Cancer), 48 h): * (effect not reached at maximum dose of 0.05 millimolar); −log10TGI (SF-268; SF-268 (CNS Cancer), 48 h): 4.97 molar; IC50 (OVCAR-5; [1]): 8.91 µM; −log10LC50 (OVCAR-5): 4.53 molar; −log10TGI (OVCAR-5): 4.79 molar; IC50 (UACC-62; [1]): 1.17 µM; −log10LC50 (UACC-62): 5.03 molar; −log10TGI (UACC-62): 5.55 molar; growth response at low concentrations (A549 cells): effective even at very low doses, including micromolar dosages; IC50 (SK-MEL-28; [1]): 1.55 µM; −log10LC50 (SK-MEL-28): * (effect not reached at maximum dose of 0.05 millimolar); −log10TGI (SK-MEL-28): 5.27 molar; IC50 (SF-295; [1]): 9.55 µM; −log10LC50 (SF-295): * (effect not reached at maximum dose of 0.05 millimolar); −log10TGI (SF-295): 4.56 molar; IC50 (OVCAR-8; [1]): 6.92 µM; −log10LC50 (OVCAR-8): 4.37 molar; −log10TGI (OVCAR-8): 4.77 molar; −log10LC50 (A549/ATCC): * (effect not reached at maximum dose of 0.05 millimolar); −log10TGI (A549/ATCC): 4.77 molar; IC50 (A549/ATCC; [1]): 3.8 µM; IC50 (U251; Homo sapiens, U-251, read-out: −log10GI50 (converted)): 2 µM; −log10LC50 (U251): 4.72 molar; −log10TGI (U251): 5.14 molar
